Measurements reported in paper PMC6934184, “Selective DNA-PKcs inhibition extends the therapeutic index of localized radiotherapy and chemotherapy” (The Journal of Clinical Investigation, 2019).

Target: T1, TTK (Homo sapiens, UniProt P33981)
T1 construct: purchased Thermo Fisher Scientific (Life Technologies) SelectScreen
Assay: SelectScreen LanthaScreen
Format: binding
Details: read-out: % displacement
Outline: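 SelectScreen broad panel; activity (Z'LYTE, Adapta) plus binding formats. ATP: Km app for CSF1R Z'LYTE; 10 for CAMK1 Adapta. Readout = % per kinase.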

T1 sequence (P33981 whole entry): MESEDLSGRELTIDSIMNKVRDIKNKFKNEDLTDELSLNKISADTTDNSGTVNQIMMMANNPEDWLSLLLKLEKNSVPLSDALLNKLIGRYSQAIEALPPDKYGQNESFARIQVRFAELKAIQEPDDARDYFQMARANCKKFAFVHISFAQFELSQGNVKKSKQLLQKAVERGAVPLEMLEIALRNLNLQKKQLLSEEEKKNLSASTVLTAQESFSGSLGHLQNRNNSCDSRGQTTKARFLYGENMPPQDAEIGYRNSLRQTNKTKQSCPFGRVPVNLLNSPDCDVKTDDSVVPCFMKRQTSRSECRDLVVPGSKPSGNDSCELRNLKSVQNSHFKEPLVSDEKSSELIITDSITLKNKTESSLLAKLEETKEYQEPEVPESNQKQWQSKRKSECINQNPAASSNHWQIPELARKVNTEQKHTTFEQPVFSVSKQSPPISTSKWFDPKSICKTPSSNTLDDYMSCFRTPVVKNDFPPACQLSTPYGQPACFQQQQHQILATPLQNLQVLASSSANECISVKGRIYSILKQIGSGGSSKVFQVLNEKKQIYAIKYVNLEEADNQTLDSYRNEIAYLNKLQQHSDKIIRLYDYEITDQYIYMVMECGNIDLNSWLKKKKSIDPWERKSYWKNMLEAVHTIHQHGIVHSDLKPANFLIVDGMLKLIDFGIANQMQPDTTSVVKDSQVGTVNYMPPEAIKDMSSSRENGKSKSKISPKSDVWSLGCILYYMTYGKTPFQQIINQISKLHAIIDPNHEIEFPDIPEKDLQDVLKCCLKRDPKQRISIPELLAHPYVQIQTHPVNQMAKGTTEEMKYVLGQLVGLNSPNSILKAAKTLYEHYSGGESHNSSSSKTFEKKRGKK

CN(C(=O)CN1CCOCC1)c1ccc2sc3c(-c4cccc5c(=O)cc(N6CC7CCC(C6)O7)oc45)cccc3c2c1 [NU5455]
inhibition at 1 µM: -0.7%
